Assay: Clinic Study of Testosterone Therapy for hypogonadal males: serum T Cavg and Cmax after oral TU fixed dose regimens
Assay type: in vivo, human
Conditions: for Cavg > 300 ng/dL ≥75% patients / Cavg > 300 ng/dL ≥80% patients: with food (at least 10 g fat)
Experimental: Fixed Dose Dosing Regimen Examples Based on Study Described Below for Estimated or Actual Cavg (Administered with Food with at Least 10 g of Fat)
The dosage form from Example B of Composition 4 with dosing regimen (Regimen #9-16) of dosing category BID-equal dose with daily dose range 150-600 mg were used for a Clinic Study of Testosterone Therapy for hypogonadal males.
The clinical study was a randomized double-blind, placebo-controlled dose escalating study of the safety, efficacy, tolerability, and pharmacokinetics of testosterone therapy in hypogonadal males. This clinic study was a single and multiple, ascending-dose study that was designed to determine the optimal starting, titration (if appropriate), or single fixed dose for safety and efficacy targeted by the US FDA. The study also verified the time for testosterone levels to reach steady state and identified a suitable fixed dose dosing regimen that satisfies an unmet need for safety and efficacy for oral TT.
This study was carried out with conditions of a single-center, randomized, double-blind, placebo-controlled, ascending multiple-dose, and serial-group in adult hypogonadal male subjects. The objectives of this study were: • a) To assess the safety, efficacy, and tolerability of escalating single and multiple oral doses of TU dosage forms in hypogonadal males • b) To determine the pharmacokinetics (PK) of testosterone (T), DHT, TU, DHTU, and estradiol (E2) after single and multiple oral doses of TU dosage forms in hypogonadal males • C) To identify a fixed dose dosing regimen satisfying US FDA targets, without needing to titrate, for restoring serum T levels in hypogonadal males to the normal T range.
The dosing regimen for this clinical study ranged from 150 mg daily dose (75 mg BID dose) to 600 mg daily dose (300 mg BID dose). Observed pharmacokinetic parameters (T, DHT, TU, DHTU, and E2) after single and multiple oral doses of TU dosage forms in the patients were recorded in connection with each daily dose listed in the report.
The overall analyzed results of this clinical study were plotted according to % of patients for safety (Cmax<1,500 ng/dL) and efficacy (Cavg>300 ng/dL) with a variety of dosing regimens. Note that only doses that were multiples of 75 mg were tested in the clinical study, the results predicted for the other doses are estimated from these values.

[1] = Daily dose 410 mg, each BID dose 205 mg
[2] = Daily dose 420 mg, each BID dose 210 mg
[3] = Daily dose 430 mg, each BID dose 215 mg
[4] = Daily dose 438 mg, each BID dose 219 mg
[5] = Daily dose 450 mg, each BID dose 225 mg
[6] = Daily dose 460 mg, each BID dose 230 mg
[7] = Daily dose 474 mg, each BID dose 237 mg
[8] = Daily dose 480 mg, each BID dose 240 mg
[9] = Daily dose 490 mg, each BID dose 245 mg
[10] = Daily dose 500 mg, each BID dose 250 mg
[11] = Daily dose 518 mg, each BID dose 259 mg
[12] = Regimen 1, TID-equal dose, TU 75/75/75 mg
[13] = Regimen 2, TID-equal dose, TU 112/112/112 mg
[14] = Regimen 3, TID-equal dose, TU 125/125/125 mg
[15] = Regimen 4, TID-equal dose, TU 150/150/150 mg
[16] = Regimen 5, TID-equal dose, TU 188/188/188 mg
[17] = Regimen 6, TID-equal dose, TU 225/225/225 mg
[18] = Regimen 7, TID-equal dose, TU 237/237/237 mg
[19] = Regimen 8, TID-equal dose, TU 250/250/250 mg
[20] = Regimen 9, BID-equal dose (AM/PM), TU 75/75 mg
[21] = Regimen 10, BID-equal dose (AM/PM), TU 150/150 mg
[22] = Regimen 11, BID-equal dose (AM/PM), TU 215/215 mg
[23] = Regimen 12, BID-equal dose (AM/PM), TU 225/225 mg
[24] = Regimen 13, BID-equal dose (AM/PM), TU 237/237 mg
[25] = Regimen 14, BID-equal dose (AM/PM), TU 250/250 mg
[26] = Regimen 15, BID-equal dose (AM/PM), TU 265/265 mg
[27] = Regimen 16, BID-equal dose (AM/PM), TU 300/300 mg
[28] = Regimen 17, BID-different dose (AM/PM), TU 75/225 mg
[29] = Regimen 18, BID-different dose (AM/PM), TU 75/300 mg
[30] = Regimen 19, BID-different dose (AM/PM), TU 150/225 mg
[31] = Regimen 20, BID-different dose (AM/PM), TU 225/150 mg
[32] = Regimen 21, BID-different dose (AM/PM), TU 225/300 mg
[33] = Regimen 22, BID-different dose (AM/PM), TU 300/75 mg
[34] = Regimen 23, BID-different dose (AM/PM), TU 300/150 mg
[35] = Regimen 24, BID-different dose (AM/PM), TU 300/225 mg

CCCCCCCCCCC(=O)O[C@H]1CC[C@H]2[C@@H]3CCC4=CC(=O)CC[C@]4(C)[C@H]3CC[C@]12C [TU, testosterone undecanoate]
% with Cavg/day > 300 ng/dL [1]: 71.5% | % with Cmax/dose < 1,500 ng/dL [1]: 93.7% | % with Cavg/day > 300 ng/dL [2]: 74.9% | % with Cmax/dose < 1,500 ng/dL [2]: 92.8% | % with Cavg/day > 300 ng/dL [3]: 77.6% | % with Cmax/dose < 1,500 ng/dL [3]: 92.1% | % with Cavg/day > 300 ng/dL [4]: 80.0% | % with Cmax/dose < 1,500 ng/dL [4]: 91.2% | % with Cavg/day > 300 ng/dL [5]: 83.5% | % with Cmax/dose < 1,500 ng/dL [5]: 89.9% | % with Cavg/day > 300 ng/dL [6]: 85.6% | % with Cmax/dose < 1,500 ng/dL [6]: 88.9% | % with Cavg/day > 300 ng/dL [7]: 88.9% | % with Cmax/dose < 1,500 ng/dL [7]: 86.8% | % with Cavg/day > 300 ng/dL [8]: 90.0% | % with Cmax/dose < 1,500 ng/dL [8]: 86.1% | % with Cavg/day > 300 ng/dL [9]: 91.7% | % with Cmax/dose < 1,500 ng/dL [9]: 84.6% | % with Cavg/day > 300 ng/dL [10]: 93.0% | % with Cmax/dose < 1,500 ng/dL [10]: 83.2% | % with Cavg/day > 300 ng/dL [11]: 95.2% | % with Cmax/dose < 1,500 ng/dL [11]: 80.0% | Cavg > 300 ng/dL ≥75% patients [12]: No | Cavg > 300 ng/dL ≥80% patients [12]: No | Cavg > 300 ng/dL ≥75% patients [13]: No | Cavg > 300 ng/dL ≥80% patients [13]: No | Cavg > 300 ng/dL ≥75% patients [14]: No | Cavg > 300 ng/dL ≥80% patients [14]: No | Cavg > 300 ng/dL ≥75% patients [15]: Yes | Cavg > 300 ng/dL ≥80% patients [15]: Yes | Cavg > 300 ng/dL ≥75% patients [16]: Yes | Cavg > 300 ng/dL ≥80% patients [16]: Yes | Cavg > 300 ng/dL ≥75% patients [17]: Yes | Cavg > 300 ng/dL ≥80% patients [17]: Yes | Cavg > 300 ng/dL ≥75% patients [18]: Yes | Cavg > 300 ng/dL ≥80% patients [18]: Yes | Cavg > 300 ng/dL ≥75% patients [19]: Yes | Cavg > 300 ng/dL ≥80% patients [19]: Yes | Cavg > 300 ng/dL ≥75% patients [20]: No | Cavg > 300 ng/dL ≥80% patients [20]: No | Cavg > 300 ng/dL ≥75% patients [21]: No | Cavg > 300 ng/dL ≥80% patients [21]: No | Cavg > 300 ng/dL ≥75% patients [22]: Yes | Cavg > 300 ng/dL ≥80% patients [22]: No | Cavg > 300 ng/dL ≥75% patients [23]: Yes | Cavg > 300 ng/dL ≥80% patients [23]: Yes | Cavg > 300 ng/dL ≥75% patients [24]: Yes | Cavg > 300 ng/dL ≥80% patients [24]: Yes | Cavg > 300 ng/dL ≥75% patients [25]: Yes | Cavg > 300 ng/dL ≥80% patients [25]: Yes | Cavg > 300 ng/dL ≥75% patients [26]: Yes | Cavg > 300 ng/dL ≥80% patients [26]: Yes | Cavg > 300 ng/dL ≥75% patients [27]: Yes | Cavg > 300 ng/dL ≥80% patients [27]: Yes | Cavg > 300 ng/dL ≥75% patients [28]: No | Cavg > 300 ng/dL ≥80% patients [28]: No | Cavg > 300 ng/dL ≥75% patients [29]: No | Cavg > 300 ng/dL ≥80% patients [29]: No | Cavg > 300 ng/dL ≥75% patients [30]: No | Cavg > 300 ng/dL ≥80% patients [30]: No | Cavg > 300 ng/dL ≥75% patients [31]: Yes | Cavg > 300 ng/dL ≥80% patients [31]: No | Cavg > 300 ng/dL ≥75% patients [32]: Yes | Cavg > 300 ng/dL ≥80% patients [32]: Yes | Cavg > 300 ng/dL ≥75% patients [33]: No | Cavg > 300 ng/dL ≥80% patients [33]: No | Cavg > 300 ng/dL ≥75% patients [34]: Yes | Cavg > 300 ng/dL ≥80% patients [34]: Yes | Cavg > 300 ng/dL ≥75% patients [35]: Yes | Cavg > 300 ng/dL ≥80% patients [35]: Yes | US FDA T level targets for safety and efficacy (fixed dose regimen, 430 mg TU daily dose (215 mg BID-equal dose) to 480 mg TU daily dose (240 mg BID-equal dose), no titration): can satisfy US FDA T level targets for safety and efficacy without titration

— patent US20190240236A1, “ORAL TESTOSTERONE UNDECANOATE THERAPY” (Lipocine Inc., priority 2016, published 2019)
